Measurements published in the METLIN SMRT retention time set (Domingo-Almenara et al. 2019).

Assay: gradient 5% acetonitrile 3 min, to 50% in 2 min, to 85% in 15 min, held 3 min, 100 µL/min
Details: column: Zorbax Extend-C18 2.1 x 50 mm; eluents: water / acetonitrile, 0.1% formic acid
Summary of the method: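 Values are retention times taken from adduct peaks that software picked and an analyst inspected. The pure standards were run as mixtures of ~100 molecules on HPLC linked to a quadrupole time-of-flight mass spectrometer, in positive and negative ionization mode. A Zorbax Extend-C18 column (2.1 × 50 mm, 1.8 μm) was used at 100 μL/min with water and acetonitrile, each including 0.1% formic acid.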

RP-LC retention time	Compound
699 s	Cn1c(C(=O)N2CCN(c3ccccn3)CC2)cc2cc(S(=O)(=O)N3CCCCC3)ccc21
912 s	Cc1ccc(NC(=O)C2CCN(S(=O)(=O)c3cc(C(=O)N(C)C)cs3)CC2)cc1Cl
600 s	CCc1nc2cc(N3CCC(C(=O)NCCN4CCCC4)CC3)cnc2nc1CC
626 s	COc1ccc(NC(=O)Cn2c(N3CCCC3)nc(C)cc2=O)c(OC)c1
624 s	COC(=O)C1=C(N)Oc2cc(C)n(CCN(C)C)c(=O)c2C1c1ccccc1Cl (configuration not stated)
1020 s	Cc1ccc(F)cc1S(=O)(=O)N1CCCC(C)(C(=O)NCc2cccc(F)c2)C1 (configuration not stated)
778 s	CCOc1ccc(-c2ccc(C)c(NC(=O)c3ccc(S(=O)(=O)N(C)C)cc3)c2)nn1
665 s	CC(C)(C)CC(=O)Nc1cnc(-c2cccnc2)nc1
680 s	O=C(CCC1CCN(c2cc(NC3CC3)ncn2)CC1)NCc1ccc(Cl)cc1
1120 s	CC(C)(C)c1csc(-c2csc(S(=O)(=O)Nc3ccccc3F)c2)n1
799 s	CCN1c2ccccc2C(=O)NC12CCN(C(=O)c1ccc(F)c(F)c1)CC2
731 s	O=C(Nc1ccc2c(c1)OCCO2)N1CCN(Cc2ccccc2)c2ncccc21
649 s	C=CCNC(=O)[C@@H]1[C@H](c2cc(OC)c(OC)c(OC)c2)c2cc3c(cc2[C@H](O)[C@H]1CO)OCO3
1030 s	O=c1n(Cc2cccc(F)c2)nc2c(-c3nc(-c4cccc(F)c4)no3)cccn12
537 s	O=C(Cc1cccnc1)N1CCCn2nc(-c3ccc(F)cc3)cc2C1
965 s	Cc1sc(-c2nnc(C3CCC3)o2)cc1NC(=O)c1ccc(C#N)cc1
814 s	CCCN(CC1CCOC1)C(=O)c1cccc(Cl)c1 (configuration not stated)
653 s	CCn1ccc2cc(S(=O)(=O)N3CCC(C(=O)NCc4cccnc4)CC3)ccc21
715 s	CCc1cccc(-n2nnc(C(=O)NCCOC)c2-c2ccncc2)c1
616 s	Cc1cc(N2CCN(C(=O)CCc3ccccc3)CC2)nc2nnc(C)n12
620 s	CC1(C)CC(NC(=O)c2cccc(Br)c2)CC(C)(C)N1
1080 s	Cc1cc(C)cc(Oc2nccn3c(=O)n(CC(=O)Nc4cccc(C(C)C)c4)nc23)c1

RP-LC retention time	Compound
860 s	CC(=O)c1cccc(NC(=O)N(c2ccccc2)c2ccccc2)c1
1170 s	COc1ccc(-c2noc(C3(NC(=O)COc4ccccc4)CCCCC3)n2)cc1
1030 s	CCCn1c(=O)sc2cc(S(=O)(=O)N3CCC(C(=O)NC4CCC(C)CC4)CC3)ccc21 (configuration not stated)
786 s	CCC(C)NS(=O)(=O)c1cccc(-c2nc(-c3ccccc3)no2)c1 (configuration not stated)
696 s	CC1CCCCN1CCCNC(=O)C1=Cc2cc(Br)ccc2OC1 (configuration not stated)
975 s	C=CCN1C(=O)C(C)(C)COc2cc(NS(=O)(=O)c3ccc(Cl)s3)ccc21
633 s	COc1ccc(CNC(=O)C2CCN(c3cnc4nccnc4c3)CC2)cc1OC
1030 s	Cc1nn(CC(=O)NCCC(C)C)c(=O)c2c(-n3cccc3)n(-c3ccc(Cl)cc3)nc12
795 s	O=C(O)CSc1nc2ccccc2s1
615 s	CN(CC1(C)CCOCC1)S(=O)(=O)c1cn(C)cn1
804 s	O=C([C@@H]1C[C@H](F)CN1C(=O)Nc1cccc(C(F)(F)F)c1)N1CCCCC1
806 s	O=C(CC1CCCCC1)N1CCC(F)(C(=O)N2CCCC2)CC1
678 s	CC(C)NC(=O)N1CCC[C@H]1c1nc(-c2ccc(F)cc2)n[nH]1
984 s	CCn1c(=O)c(N2CCN(C(=O)Nc3cc(C)ccc3C)CC2)nc2ccccc21
687 s	O=C(NCc1ccc(Cl)cc1)c1nc(-c2ccncc2)cs1
699 s	O=C(CCCc1nnc2c(=O)n(-c3ccc(F)cc3)ccn12)NCCc1c[nH]c2ccccc12
832 s	Cc1nn(CC(=O)N2CCC(Cc3ccccc3)CC2)c(=O)c2noc(C)c12
1160 s	CCOc1cccc(=O)c2c(C)n(-c3nc(-c4ccc(OC)cc4)c(C)s3)c(C)c12
1020 s	CCCn1nnc2cc(-c3noc(C4CC(=O)N(c5ccc(C)c(C)c5)C4)n3)ccc21 (configuration not stated)
874 s	CCN(CCCc1ccccc1)CCCc1ccccc1
774 s	CCC(C)NC(=O)C1CCCN(C(=O)c2[nH]c(C)c(C(=O)OC(C)C)c2C)C1 (configuration not stated)
646 s	CCN1CCN(c2cc(C)c3cc(NC(=O)/C=C/c4ccc(OC(C)C)cc4)ccc3n2)CC1

RP-LC retention time	Compound
1000 s	Cc1ccc(F)cc1S(=O)(=O)N1CCc2c(c(-c3nnc(-c4ccc(F)cc4)o3)nn2C)C1
919 s	COC(=O)c1ccc(NC(=O)N2CCCC2c2ccc(F)cc2)cc1 (configuration not stated)
1100 s	CC(C)OCCCNC(=O)Cn1cccc1-c1nc(-c2ccc(Cl)cc2)cs1
738 s	O=C(NC1CC1)C1COC2(CCN(C(=O)c3cccc(Cl)c3)CC2)N1C(=O)c1cccc(F)c1 (configuration not stated)
641 s	Cc1cc(C)n(CC(=O)N2CCC[C@H]2c2nc(-c3ccccc3)n[nH]2)n1
756 s	COc1ccc(N2CCN(C(=O)c3ccc4c(c3)NC(=O)C3CCCCN43)CC2)cc1 (configuration not stated)
1010 s	Cn1nc(-c2nnc(-c3ccccc3F)o2)c2c1CCN(S(=O)(=O)c1ccc3c(c1)CCC3)C2
1030 s	CCn1nc(-c2nc(-c3ccc(Cl)cc3)no2)ccc1=O
656 s	CCOc1ccc(NC(=O)NCc2nc(-c3ccc(OCC)cc3)oc2C)cc1
812 s	CC1Oc2ccc(S(=O)(=O)N3CCC(C(=O)NCc4ccc(F)cc4)CC3)cc2NC1=O (configuration not stated)
647 s	CCC(=O)N1CCc2cc(N3CC(C(=O)NC(C)C)CC3=O)ccc21 (configuration not stated)
1060 s	CCN1C(=O)COc2ccc(-c3noc(-c4cccc(OC)c4OC)n3)cc21
712 s	COc1ccc(C)cc1NC(=O)CCC1CCN(c2cc(NC3CC3)ncn2)CC1
650 s	CC(C)N(C(=O)CSc1nc2ccccc2[nH]1)c1ccccc1
689 s	Cn1ccc2c(cc(C(=O)N3CCN(c4ccc(F)cc4)CC3)n2C)c1=O
1070 s	CC(NC(=O)c1sc2ncccc2c1-n1cccc1)c1ccc(F)cc1 (configuration not stated)
676 s	O=c1n(Cc2ccc(Cl)cc2)nc2ccc(S(=O)(=O)N3CCOCC3)cn12
772 s	CCOC(=O)c1ccc(NC(=O)N(Cc2cc(=O)[nH]c3ccccc23)C(C)C)cc1
767 s	COCc1cc(=O)n(CC(=O)Nc2ccccc2)c(N2CCOCC2)n1
645 s	CCN1CCCC1CNC(=O)c1nnc(-c2ccc(S(=O)(=O)N3CCCCC3)cc2)o1 (configuration not stated)
695 s	COc1cccc(C2c3c(oc4cc(C)c(C)cc4c3=O)C(=O)N2CCCN2CCOCC2)c1 (configuration not stated)
1100 s	CC(C)c1noc(-c2cc(=O)n(CC(=O)Nc3ccc(Cl)cc3F)c3ccccc23)n1

RP-LC retention time	Compound
809 s	Cc1cccc(C(=O)Nc2ccc3c(c2)Sc2ncccc2C(=O)N3C)c1
813 s	CC(C)CN1N=C(C(=O)N2CCOCC2)S(=O)(=O)c2ccc(Cl)cc21
577 s	O=C(CN1CCOCC1)N1CC(c2nc(CCOCC3CC3)no2)C1
812 s	COc1cc(C(=O)N2CCC3(CC2)N=C(c2ccc(Cl)cc2)C(=O)N3)cc(OC)c1OC
551 s	Cc1ccc(CN2CC(CO)C3(CCNCC3)C2)cc1C (configuration not stated)
780 s	CC1=C(c2ccc(Cl)cc2)S(=O)(=O)N=C1N1CCCN(C(=O)NC(C)C)CC1
616 s	CCN(CC)S(=O)(=O)c1ccc2c(c1)nnn2CCC(=O)N1CCN(c2ccccn2)CC1
612 s	CCn1cc(CCNC(=O)C(C)C)c2cccnc21
600 s	Cn1c(=O)n(C)c2cc(CNc3ccc(N4CCOCC4)cc3)ccc21
705 s	Clc1cccc(-c2nnc(-c3nc(NCc4cccnc4)c4ccccc4n3)o2)c1
832 s	COc1ccc(C2C(C(=O)Nc3ccc4c(c3)OCCO4)c3ccccc3C(=O)N2C)cc1 (configuration not stated)
1020 s	Cc1nn(-c2ccc(Cl)cc2)c(C)c1S(=O)(=O)N1CCC(C(=O)Nc2ccccc2F)CC1
766 s	Cc1noc(C2(NC(=O)c3ccccn3)CCCCC2)n1
852 s	Cc1cccc(NS(=O)(=O)c2cc3n(c2)CCN(CC(C)C)C3=O)c1C
898 s	O=C(Cn1cccc1-c1nnc(C2CCC2)o1)N1CCN(c2ccccc2)CC1
732 s	O=S(=O)(Cc1ccccc1F)N1CCCC(Cn2c(C3CC3)nc3cccnc32)C1 (configuration not stated)
579 s	CN1CCC(CCNC(=O)C2CCc3sc(C(=O)N4CCCC4)cc3C2)CC1 (configuration not stated)
638 s	O=C(Cc1c(F)cccc1Cl)NC1CCN(c2cc(-c3ccccc3)[nH]n2)C1 (configuration not stated)
637 s	O=C(Cn1cnc2nc(N3CCC(C(=O)NC4CC4)CC3)sc2c1=O)NCc1ccccc1

Compound	RP-LC retention time
COc1ccc2c(c1)C1(CCN(C(=O)CCc3ccccc3)C1)C(=O)N2C (configuration not stated)	850 s
N#Cc1ccccc1CN1CC[C@@H]2CN(Cc3cccnc3)[C@@H]2C1	556 s
